According to patent publication US9783531B2, “Thiazole-substituted aminoheteroaryls as spleen tyrosine kinase inhibitors” (Merck Sharp & Dohme Corp., priority 2013, dated 2017):

Tests used:
[1] = target: T1, recombinant human GST-SYK (Homo sapiens, UniProt P43405); assay: Homogeneous Time-Resolved Fluorescence (HTRF) assay for the recombinant human Syk enzyme; type: biochemical; conditions: recombinant human GST-SYK 5 pM, ATP 25 μM, read-out: rhSyk
T1 construct: purchased Carna Biosciences 08-176
Description: Homogeneous Time-Resolved Fluorescence (HTRF) Assay for the Recombinant Human Syk Enzyme
A recombinant GST-hSYK fusion protein was used to measure potency of compounds to inhibit human Syk activity. The recombinant human GST-SYK (Carna Biosciences #08-176) (5 pM final concentration) was incubated with various concentrations of the inhibitor diluted in DMSO (0.1% final concentration) for 10 minutes at room temperature in 15 mM Tris-HCl (pH 7.5), 0.01% tween 20, 2 mM DTT in 384 well plate format. To initiate the reaction the biotinylated substrate peptide (250 nM final concentration) that contains the phosphorylation site for Syk was added with magnesium (5 mM final concentration) and ATP (25 μM final concentration). Final volume of the reaction was 10 μL. Phosphorylation of the peptide was allowed to proceed for 45′ at room temperature. To quench the reaction and detect the phosphorylated product, 2 nM of a Europium-anti-phosphotyrosine antibody (Perkin Elmer #AD0161) and 70 nM SA-APC (Perkin-Elmer #CR130-100) were added together in 15 mM Tris pH 7.5, 40 mM EDTA, 0.01% tween 20. Final volume of the quenching solution was 10 μL.
The resulting HTRF signal was measured after 30 minutes on an EnVision (Perkin-Elmer) reader using a time-resolved fluorescence protocol. Table A below lists activities as IC50 values (nM) for representative compounds of the invention.

[2] = dosed intranasally, phase I/II study, allergic rhinitis; cited from earlier work
[3] = phase II clinical trial, allergic rhinitis; cited from earlier work

Row | SMILES | IC50 [1] [nM] | other results
1 | Cc1cc(Nc2ncn(C3CCC3)n2)cc(-c2cnc([C@]3(O)CC[C@@H](C(=O)O)C(C)(C)C3)s2)c1 (single isomer, unassigned) [Example 2.24, (1R,4S or 1S,4R)-4-(5-{3-[(1-cyclobutyl-1H-1,2,4-triazol-3-yl)amino]-5-methylphenyl}-1,3-thiazol-2-yl)-4-hydroxy-2,2-dimethylcyclohexanecarboxylic acid] | 0.388 | –
2 | Cc1cc(Nc2ncn(C3CCC3)n2)cc(-c2cnc([C@]3(O)CC[C@@H](C(=O)O)C(C)(C)C3)s2)c1 (single isomer, unassigned) [Example 2.25, (1R,4S or 1S,4R)-4-(5-{3-[(1-cyclobutyl-1H-1,2,4-triazol-3-yl)amino]-5-methylphenyl}-1,3-thiazol-2-yl)-4-hydroxy-2,2-dimethylcyclohexanecarboxylic acid] | 2.54 | –
3 | Cc1cc(Nc2ncn(C)n2)cc(-c2cnc(C3(O)CCC(C(=O)OC(C)(C)C)CC3)s2)c1 (centres unmarked) [Example 1.1, tert-butyl 4-hydroxy-4-(5-(3-methyl-5-((1-methyl-1H-1,2,4-triazol-3-yl)amino)phenyl)thiazol-2-yl)cyclohexanecarboxylate] | 1160 | –
4 | Cc1cc(Nc2ncn(C)n2)cc(-c2cnc(C3(O)CCC(C(=O)O)CC3)s2)c1 (centres unmarked) [Example 1.2, 4-hydroxy-4-(5-(3-methyl-5-((1-methyl-1H-1,2,4-triazol-3-yl)amino)phenyl)thiazol-2-yl)cyclohexanecarboxylic acid] | 56.5 | –
5 | CCn1cnc(Nc2cc(C)cc(-c3cnc(C4(O)CCC(C(=O)OC(C)(C)C)CC4)s3)c2)n1 (centres unmarked) [Example 2.1, tert-butyl 4-(5-(3-((1-ethyl-1H-1,2,4-triazol-3-yl)amino)-5-methylphenyl)thiazol-2-yl)-4-hydroxycyclohexanecarboxylate] | 1110 | –
6 | Cc1cc(Nc2cc[nH]n2)cc(-c2cnc(C3(O)CCC3)s2)c1 [Example 2.4, 1-{5-[3-methyl-5-(1H-pyrazol-3-ylamino)phenyl]-1,3-thiazol-2-yl}cyclobutanol] | 1140 | –
7 | Cc1cc(Nc2cc(C)[nH]n2)cc(-c2cnc(C3(O)CCC3)s2)c1 [Example 2.5, 1-(5-{3-methyl-5-[(5-methyl-1H-pyrazol-3-yl)amino]phenyl}-1,3-thiazol-2-yl)cyclobutanol] | 941 | –
8 | Cc1cc(Nc2cc(C3CC3)[nH]n2)cc(-c2cnc(C3(O)CCC3)s2)c1 [Example 2.6, 1-(5-{3-[(5-cyclopropyl-1H-pyrazol-3-yl)amino]-5-methylphenyl}-1,3-thiazol-2-yl)cyclobutanol] | 181 | –
9 | Cc1cc(Nc2cc(C3CCC3)[nH]n2)cc(-c2cnc(C3(O)CCC3)s2)c1 [Example 2.7, 1-(5-{3-[(5-cyclobutyl-1H-pyrazol-3-yl)amino]-5-methylphenyl}-1,3-thiazol-2-yl)cyclobutanol] | 274 | –
10 | Cc1cc(Nc2n[nH]c(C)n2)cc(-c2cnc(C3(O)CCC3)s2)c1 [Example 2.9, 1-(5-{3-methyl-5-[(5-methyl-1H-1,2,4-triazol-3-yl)amino]phenyl}-1,3-thiazol-2-yl)cyclobutanol] | 1300 | –
11 | Cc1cc(Nc2ncn(-c3ccccc3)n2)cc(-c2cnc(C3(O)CCC3)s2)c1 [Example 2.14, 1-(5-{3-methyl-5-[(1-phenyl-1H-1,2,4-triazol-3-yl)amino]phenyl}-1,3-thiazol-2-yl)cyclobutanol] | 365 | –
12 | Cc1cc(Nc2ncn(C3CCCCC3)n2)cc(-c2cnc(C3(O)CCC3)s2)c1 [Example 2.16, 1-(5-{3-[(1-cyclohexyl-1H-1,2,4-triazol-3-yl)amino]-5-methylphenyl}-1,3-thiazol-2-yl)cyclobutanol] | 115 | –
13 | Cc1cc(Nc2ncnn2C2CCC2)cc(-c2cnc(C3(O)CCC3)s2)c1 [Example 2.18, 1-(5-{3-[(1-cyclobutyl-1H-1,2,4-triazol-5-yl)amino]-5-methylphenyl}-1,3-thiazol-2-yl)cyclobutanol] | 7710 | –
14 | Cc1cc(Nc2ncn(C(C)C)n2)cc(-c2cnc([C@]3(O)CC[C@@H](C(=O)OC(C)(C)C)CC3)s2)c1 [Example 2.20, tert-butyl cis-4-hydroxy-4-[5-(3-methyl-5-{[1-(1-methylethyl)-1H-1,2,4-triazol-3-yl]amino}phenyl)-1,3-thiazol-2-yl]cyclohexanecarboxylate] | 1000 | –
15 | Cc1cc(Nc2ncnn2C2CCC2)cc(-c2cnc([C@]3(O)CC[C@@H](C(=O)O)CC3)s2)c1 [Example 2.21, cis-4-(5-{3-[(1-cyclobutyl-1H-1,2,4-triazol-5-yl)amino]-5-methylphenyl}-1,3-thiazol-2-yl)-4-hydroxycyclohexane-carboxylic acid] | 3310 | –
16 | Cc1cc(Nc2ncn(C(C)C)n2)cc(-c2cnc([C@]3(O)CC[C@@H](C(=O)O)CC3)s2)c1 [Example 2.22, cis-4-hydroxy-4-[5-(3-methyl-5-{[1-(1-methylethyl)-1H-1,2,4-triazol-3-yl]amino}phenyl)-1,3-thiazol-2-yl]cyclohexanecarboxylic acid] | 9.94 | –
17 | Cc1cc(Nc2ncn(C(C)C)n2)cc(-c2cnc([C@]3(O)CC[C@@H](C(N)=O)CC3)s2)c1 [Example 2.23, cis-4-hydroxy-4-[5-(3-methyl-5-{[1-(1-methylethyl)-1H-1,2,4-triazol-3-yl]amino}phenyl)-1,3-thiazol-2-yl]cyclohexanecarboxamide] | 36.8 | –
18 | Oc1cccc(Nc2ncc(F)c(Nc3cccc(O)c3)n2)c1 [Example R112] | – | PGD2 (immune mediator) [2]: statistically significant decrease in PGD2; clinical safety [2]: safe across a range of indicators; efficacy versus placebo [3]: lack of efficacy versus placebo

More lines, main results first:

Row | IC50 [1] [nM] | SMILES | other results
19 | 10.1 | CCn1cnc(Nc2cc(C)cc(-c3cnc(C4(O)CCC(C(=O)O)CC4)s3)c2)n1 (centres unmarked) [Example 2.2, 4-(5-(3-((1-ethyl-1H-1,2,4-triazol-3-yl)amino)-5-methylphenyl)thiazol-2-yl)-4-hydroxycyclohexanecarboxylic acid] | –
20 | 49.6 | CCn1cnc(Nc2cc(C)cc(-c3cnc([C@]4(O)CC[C@@H](C(N)=O)CC4)s3)c2)n1 [Example 2.3, 4-(5-(3-((1-Ethyl-1H-1,2,4-triazol-3-yl)amino)-5-methylphenyl)thiazol-2-yl)-4-hydroxycyclohexanecarboxamide] | –
21 | 188 | Cc1cc(Nc2ncn(C)n2)cc(-c2cnc(C3(O)CCC3)s2)c1 [Example 2.10, 1-(5-{3-methyl-5-[(1-methyl-1H-1,2,4-triazol-3-yl)amino]phenyl}-1,3-thiazol-2-yl)cyclobutanol] | –
22 | 49.2 | Cc1cc(Nc2ncn(C(C)C)n2)cc(-c2cnc(C3(O)CCC3)s2)c1 [Example 2.11, 1-[5-(3-methyl-5-{[1-(1-methylethyl)-1H-1,2,4-triazol-3-yl]amino}phenyl)-1,3-thiazol-2-yl]cyclobutanol] | –
23 | 49.1 | CCn1cnc(Nc2cc(C)cc(-c3cnc(C4(O)CCC4)s3)c2)n1 [Example 2.12, 1-(5-{3-[(1-ethyl-1H-1,2,4-triazol-3-yl)amino]-5-methylphenyl}-1,3-thiazol-2-yl)cyclobutanol] | –
24 | 96.7 | CCCn1cnc(Nc2cc(C)cc(-c3cnc(C4(O)CCC4)s3)c2)n1 [Example 2.13, 1-(5-{3-methyl-5-[(1-propyl-1H-1,2,4-triazol-3-yl)amino]phenyl}-1,3-thiazol-2-yl)cyclobutanol] | –
25 | 3860 | Cc1cc(Nc2ncn(C(=O)N(C)C)n2)cc(-c2cnc(C3(O)CCC3)s2)c1 [Example 2.15, 3-({3-[2-(1-hydroxycyclobutyl)-1,3-thiazol-5-yl]-5-methylphenyl}amino)-N,N-dimethyl-1H-1,2,4-triazole-1-carboxamide] | –
26 | 7.41 | Cc1cc(Nc2ncn(C3CCC3)n2)cc(-c2cnc(C3(O)CCC3)s2)c1 [Example 2.17, 1-(5-{3-[(1-cyclobutyl-1H-1,2,4-triazol-3-yl)amino]-5-methylphenyl}-1,3-thiazol-2-yl)cyclobutanol] | –
27 | 325 | Cc1cc(Nc2ncn(Cc3ccccc3)n2)cc(-c2cnc(C3(O)CCC3)s2)c1 [Example 2.19, 1-(5-{3-[(1-benzyl-1H-1,2,4-triazol-3-yl)amino]-5-methylphenyl}-1,3-thiazol-2-yl)cyclobutanol] | –
